Assay results from PubChem BioAssay (NCI).
Values joined by “and” are separate entries in the source; they are usually repeats but may differ in a detail not shown here. Identical values can stand only once.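 Growth conditions: 96-well plates. Treatment: test compound, 48 hours, 5 concentrations. Analysis: linear interpolation between bracketing concentrations; unreached endpoints set to highest concentration. GI50 is the concentration that inhibits growth by half. Definition used: TGI = concentration required for complete inhibition of growth.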

How the values were obtained:
Assay in all cases: growth of human tumour cells (NCI), 48 h
A498 renal = test system: A498 renal
ACHN renal = test system: ACHN renal
CAKI-1 renal = test system: CAKI-1 renal
CCRF-CEM leukemia = test system: CCRF-CEM leukemia
EKVX NSCLC = test system: EKVX NSCLC
KM12 colon = test system: KM12 colon
NCI-H460 lung = test system: NCI-H460 lung
NCI/ADR-RES ovarian = test system: NCI/ADR-RES ovarian
RPMI-8226 leukemia = test system: RPMI-8226 leukemia
TK-10 renal = test system: TK-10 renal

SMILES	GI50 (A498 renal)	TGI (A498 renal)	GI50 (ACHN renal)	TGI (ACHN renal) [µM]	GI50 (CAKI-1 renal)	TGI (CAKI-1 renal)	GI50 (CCRF-CEM leukemia)	TGI (CCRF-CEM leukemia)	GI50 (EKVX NSCLC)	TGI (EKVX NSCLC)	GI50 (KM12 colon)	TGI (KM12 colon)	GI50 (NCI-H460 lung)	TGI (NCI-H460 lung)	GI50 (NCI/ADR-RES ovarian)	TGI (NCI/ADR-RES ovarian) [µM]	GI50 (RPMI-8226 leukemia)	TGI (RPMI-8226 leukemia)	GI50 (TK-10 renal)	TGI (TK-10 renal)
CS(=O)(=O)CCNCc1ccc(-c2ccc3ncnc(Nc4ccc(OCc5ccccc5)c(Cl)c4)c3c2)o1	1.56 µM	9.33 µM	0.187 µM	> 25	0.41 µM	> 21.8 µM	7.24 µM	> 21.5 µM	0.132 µM	> 18.7 µM	6.41 µM	17.8 µM	6.07 µM	> 17.8 µM	5.9 µM	> 25	5.49 µM	13.7 µM	0.158 µM	> 14.1 µM
O=C(O)c1ccc2c(c1)nc(Nc1cccc(Cl)c1)c1ccncc12	0.231 µM and 1.99 µM	2.46 µM and 6.66 µM	3.04 µM and 3.51 µM	> 100	1.31 µM and 1.96 µM	5.73 µM and 7.22 µM	2.25 µM and 1.85 µM	8.55 µM and 7.01 µM	3.46 µM and 4.04 µM	23.9 µM and > 10 µM	3.43 µM and 4.43 µM	18.1 µM and > 10 µM	3.48 µM and 4.32 µM	25.1 µM and > 10 µM	3.17 µM and 3.73 µM	> 80.1	2.68 µM and 2.5 µM	8.86 µM and 9.44 µM	3.67 µM and 2.13 µM	25.2 µM and > 10 µM
CCc1nc(N)nc(N)c1-c1ccc(NCCc2ccccc2)c([N+](=O)[O-])c1	–	43.4 µM	–	37	–	> 71.3 µM	–	> 61.2 µM	–	54 µM	–	> 57 µM	–	> 53.9 µM	–	53.7	–	7.35 µM	–	> 69.7 µM
CN(C[C@@H]1COCCO1)S(=O)(=O)Nc1ccc2ccc3ncc(-c4cnn(C)c4)cc3c(=O)c2c1	0.447 µM	2.18 µM	2.82 µM	> 100	1.94 µM	> 27.4 µM	5.65 µM	> 100 µM	19.1 µM	> 100 µM	0.369 µM	> 100 µM	4.26 µM	> 100 µM	11.8 µM	> 100	3.88 µM	> 100 µM	2.64 µM	> 100 µM
O=C(CCCCCCSc1nc(-c2ccc(Cl)cc2)cc(-c2ccc(Cl)cc2)n1)NO	1.03 µM	4.05 µM	1.21 µM	3.59	1.34 µM	4.76 µM	1.25 µM	> 50 µM	2.6 µM	39.6 µM	2.02 µM	> 50 µM	1.41 µM	5.93 µM	0.998 µM	2.97	1.7 µM	> 50 µM	1.61 µM	11.9 µM
CC(=O)[O][Hg][c]1ccccc1	1.11 µM	2.37 µM	1.23 µM	2.61	0.964 µM	2.89 µM	0.147 µM	0.494 µM	1.46 µM	3.98 µM	1.6 µM	3.04 µM	0.934 µM	3.82 µM	1.7 µM	5.74	0.283 µM	1.3 µM	0.512 µM	1.36 µM
Cn1c(=S)c2[nH]c(SCCN3CCCC3)nc2n(C)c1=O	–	> 100 µM	–	> 100	–	> 100 µM	–	> 100 µM	–	> 100 µM	–	> 100 µM	–	> 100 µM	–	> 100	–	> 100 µM	–	> 100 µM
O=C(OCc1ccc2c(Cl)cc(Cl)c(O)c2n1)c1cc2ccccc2[nH]1	1.63 µM	3 µM	0.219 µM	0.519	0.435 µM	1.65 µM	0.146 µM	1.93 µM	1.49 µM	3 µM	1.69 µM	3.38 µM	1.66 µM	3.52 µM	0.953 µM	5.22	0.279 µM	0.828 µM	0.553 µM	1.47 µM
Nc1nnc(Cn2c(-c3ccccc3)nc3ccc(Br)cc3c2=O)s1	15.1 µM	74 µM	39 µM	> 100	25.1 µM	> 100 µM	16.3 µM	67.6 µM	> 100 µM	> 100 µM	25.1 µM	> 100 µM	> 100 µM	> 100 µM	41.2 µM	> 100	18.1 µM	62.8 µM	32 µM	83.9 µM
NC(=O)/C=C/NC(=O)/C=N\O	–	> 100 µM	–	> 100	–	> 100 µM	–	> 100 µM	–	> 100 µM	–	> 100 µM	–	> 100 µM	–	> 100	–	> 100 µM	–	–
C#Cc1cccc(Nc2nc3ccc([N+](=O)[O-])cc3nc2Nc2cccc(C#C)c2)c1	0.227 µM	0.783 µM	0.293 µM	1.16	0.297 µM	0.994 µM	0.209 µM	1.03 µM	0.249 µM	0.987 µM	0.299 µM	1.03 µM	0.209 µM	0.899 µM	0.284 µM	1.1	0.218 µM	0.998 µM	–	–
COc1ccc2c(c1)[n+](=O)c(C(=O)/C=C/c1cc(OC)c(OC)c(OC)c1)c(C)n2[O-]	16.4 µM	57.5 µM	13.5 µM	28.8	26.9 µM	> 100 µM	28 µM	> 100 µM	1.97 µM	15.1 µM	> 100 µM	> 100 µM	23 µM	> 100 µM	32.3 µM	> 100	47.2 µM	> 100 µM	18.9 µM	36 µM
COc1ccc(-c2csc(-c3cc(Cl)cc(Cl)c3Cl)n2)cc1	> 100 µM	> 100 µM	> 100 µM	> 100	> 100 µM	> 100 µM	> 100 µM	> 100 µM	59.9 µM	> 100 µM	48.1 µM	> 100 µM	46.5 µM	> 100 µM	52.2 µM	> 100	67 µM	> 100 µM	> 100 µM	> 100 µM
Cc1ccc(S(=O)(=O)Cc2nc(-c3ccc(C(=O)NCc4cccnc4)cc3)oc2C)cc1	> 100 µM	> 100 µM	7.06 µM	> 100	1.87 µM	> 100 µM	0.0103 µM	> 100 µM	> 100 µM	> 100 µM	0.266 µM	> 100 µM	0.843 µM	> 100 µM	0.623 µM	> 100	0.0673 µM	> 100 µM	> 67.8 µM	> 100 µM
Nc1c(C(=O)Nc2ccccc2F)sc2nc3c(cc12)C(=O)CCC3	0.47 µM	> 24 µM	> 21.5 µM	> 100	1.76 µM	> 100 µM	3.46 µM	> 100 µM	–	> 100 µM	0.547 µM	> 100 µM	0.541 µM	> 63.1 µM	0.509 µM	5.09	–	–	4.3 µM	> 100 µM
COc1ccc(C(=O)/C=C/c2ccc(OCC(=O)N3CCN(c4ccccc4)CC3)cc2)cc1	–	> 93.9 µM	–	> 100	–	> 100 µM	–	> 100 µM	–	> 90.4 µM	–	> 100 µM	–	> 100 µM	–	> 100	–	> 77.8 µM	–	89.2 µM
CCCCn1sc(=O)n(Cc2ccc(CNC(=O)OCc3ccc4c(Br)cc(Br)c(O)c4n3)cc2)c1=O	0.105 µM	0.602 µM	0.505 µM	> 100	0.609 µM	> 100 µM	0.353 µM	> 100 µM	> 40.6 µM	> 100 µM	0.374 µM	> 24.4 µM	0.395 µM	> 100 µM	0.325 µM	> 100	0.501 µM	> 100 µM	> 51.5 µM	> 100 µM
CCN1C(=O)N(c2ccccc2)C2NN=c3s/c(=C4\C(=O)N(C(C)C)c5ccccc54)c(=O)n3C21 (centres undefined)	0.367 µM	1.64 µM	1.5 µM	> 57.9	0.661 µM	8.06 µM	1.16 µM	> 100 µM	1.83 µM	> 100 µM	0.977 µM	> 100 µM	1.16 µM	> 38.9 µM	0.702 µM	3.84	2.92 µM	18 µM	4.84 µM	49.5 µM
C#CCOc1cccc(Nc2ncnc3ccc(NC(=O)CCl)cc23)c1	4.6 µM	21.4 µM	0.253 µM	7.73	0.22 µM	12.7 µM	0.0725 µM	> 33.6 µM	3.5 µM	23.6 µM	0.776 µM	10.6 µM	0.0723 µM	3.08 µM	0.817 µM	> 100	1.22 µM	13.6 µM	2.06 µM	18.1 µM
CC1=C[S+](c2ccccc2)c2cccc3cc4ccccc4c1c23 (centres undefined)	1.08 µM	5.39 µM	0.734 µM	14.4	0.815 µM	8.02 µM	0.265 µM	–	0.333 µM	4.99 µM	0.109 µM	1.21 µM	0.349 µM	2.37 µM	3.87 µM	> 55.3	0.0379 µM	0.862 µM	0.604 µM	2.38 µM
CCCSC1=NC2C(N(CC)C(=O)N2CC)N1/N=C/C=C/c1ccccc1[N+](=O)[O-] (centres undefined)	1.59 µM	6.35 µM	3.98 µM	> 100	2.93 µM	> 100 µM	2.93 µM	> 100 µM	3.89 µM	> 100 µM	3.55 µM	> 100 µM	3.45 µM	> 100 µM	2.5 µM	8.46	–	–	10 µM	> 100 µM
CCc1nc(Cl)nc(Cl)c1Cl	–	25.6 µM	–	1.5	–	1.15 µM	–	0.771 µM	–	38.7 µM	–	15.5 µM	–	28.5 µM	–	9.41	–	–	–	21.2 µM
Cc1nc2n(c(=O)c1CCN1CCC(c3noc4cc(F)ccc34)CC1)CCCC2	> 50 µM	> 50 µM	> 50 µM	> 50	> 50 µM	> 50 µM	> 50 µM	> 50 µM	> 50 µM	> 50 µM	> 50 µM	> 50 µM	> 50 µM	> 50 µM	> 50 µM	> 50	> 50 µM	> 50 µM	> 50 µM	> 50 µM
COc1cnc2c(c1)C(=O)c1c-2n(CCCN2CCCC2)c(=O)c2cc(F)ccc12	0.344 µM	1.65 µM	0.155 µM	0.461	–	–	0.199 µM	2.82 µM	0.407 µM	4.24 µM	0.284 µM	4.73 µM	0.0603 µM	0.3 µM	0.467 µM	3.19	0.123 µM	0.643 µM	0.46 µM	2.13 µM
O=[N+]([O-])c1ccc2ncccc2c1Cl	10.8 µM	31.3 µM	4.69 µM	22.3	1.69 µM	3.45 µM	2.54 µM	29.8 µM	12.3 µM	29.2 µM	2.17 µM	9.14 µM	3.47 µM	16.6 µM	3.92 µM	> 100	0.435 µM	6.57 µM	6.38 µM	46.1 µM
C=C1C(=O)O[C@H]2[C@H]1CC/C(COC(=O)c1ccc(C#N)cc1)=C\CC[C@@]1(C)O[C@@H]21	15.4 µM	30 µM	1.85 µM	4.26	–	–	0.906 µM	6.47 µM	2.26 µM	6.85 µM	3.94 µM	14.8 µM	3.46 µM	14.5 µM	4.25 µM	18.8	1.5 µM	4.61 µM	3.99 µM	10.8 µM
O=C(O)C1(Cc2cccc(Nc3nccs3)n2)CCC(Oc2cccc(Cl)c2F)CC1 (centres undefined)	3.95 µM	19.4 µM	14.4 µM	> 100	12.4 µM	38.8 µM	1.23 µM	> 55.1 µM	13.6 µM	47.4 µM	0.204 µM	29.3 µM	0.344 µM	19.6 µM	3.48 µM	> 65.4	–	–	18.8 µM	61.9 µM
